According to patent US7102009B2, “Substituted amine derivatives and methods of use” (Amgen Inc., priority 2001, dated 2006):

What follows are molecules tested on Human Umbilical Vein Endothelial cells (VEGF-stimulated HUVEC proliferation) (assay: HUVEC Proliferation Assay (VEGF-stimulated)). Details: VEGF 50 ng/mL, 72 h incubation, CyQuant readout, read-out: inhibited VEGF-stimulated HUVEC proliferation at a level below (IC50).
Assay type: cell-based
Protocol: Human Umbilical Vein Endothelial cells are purchased from Clonetics, Inc., as cryopreserved cells harvested from a pool of donors. These cells, at passage 1, are thawed and expanded in EBM-2 complete medium, until passage 2 or 3. The cells are trypsinized, washed in DMEM+10% FBS+antibiotics, and spun at 1000 rpm for 10 min. Prior to centrifugation of the cells, a small amount is collected for a cell count. After centrifugation, the medium is discarded, and the cells are resuspended in the appropriate volume of DMEM+10% FBS+antibiotics to achieve a concentration of 3×10^5 cells/mL. Another cell count is performed to confirm the cell concentration. The cells are diluted to 3×10^4 cells/mL in DMEM+10% FBS+antibiotics, and 100 μL of cells are added to a 96-well plate. The cells are incubated at 37° C. for 22 h.
Prior to the completion of the incubation period, compound dilutions are prepared. Five-point, five-fold serial dilutions are prepared in DMSO, at concentrations 400-fold greater than the final concentrations desired. 2.5 μL of each compound dilution are diluted further in a total of 1 mL DMEM+10% FBS+antibiotics (400× dilution). Medium containing 0.25% DMSO is also prepared for the 0 μM compound sample. At the 22-hour timepoint, the medium is removed from the cells, and 100 μL of each compound dilution is added. The cells are incubated at 37° C. for 2-3 h.
During the compound pre-incubation period, the growth factors are diluted to the appropriate concentrations. Solutions of DMEM+10% FBS+antibiotics, containing either VEGF or bFGF at the following concentrations: 50, 10, 2, 0.4, 0.08, and 0 ng/mL are prepared. For the compound-treated cells, solutions of VEGF at 550 ng/mL or bFGF at 220 ng/mL for 50 ng/mL or 20 ng/mL final concentrations, respectively, are prepared since 10 μL of each will be added to the cells (110 μL final volume). At the appropriate time after adding the compounds, the growth factors are added. VEGF is added to one set of plates, while bFGF is added to another set of plates. For the growth factor control curves, the media on wells B4-G6 of plates 1 and 2 are replaced with media containing VEGF or bFGF at the varying concentrations (50-0 ng/mL). The cells are incubated at 37° C. for an additional 72 h.
At the completion of the 72 h incubation period, the medium is removed, and the cells are washed twice with PBS. After the second wash with PBS, the plates are tapped gently to remove excess PBS, and the cells are placed at −70° C. for at least 30 min. The cells are thawed and analyzed using the CyQuant fluorescent dye (Molecular Probes C-7026), following the manufacturer's recommendations. The plates are read on a Victor/Wallac 1420 workstation at 485 nm/530 nm (excitation/emission). Raw data are collected and analyzed using a 4-parameter fit equation in XLFit. IC50 values are then determined.
For `CC(C)(C)c1ccc(NC(=O)c2cccnc2Nc2ccc3cn[nH]c3c2)cc1CCCN1CCCCC1` [Example 54, N-[4-(tert-Butyl)-3-(3-piperidylpropyl)phenyl][2-(1H-indazol-6-ylamino)(3-pyridyl)]carboxamide], the IC50 was < 50 nM. For `CC(C)(C)c1ccc(NC(=O)c2cccnc2Nc2ccc3cn[nH]c3c2)cc1/C=C/CCN1CCCC1` [Example 55, N-[3-((1E)-4-Pyrrolidinylbut-1-enyl)-4-(tert-butyl)phenyl][2-(1H-indazol-6-ylamino)(3-pyridyl)]carboxamide], the IC50 was < 50 nM. In the case of `CC(C)(C)c1ccc(NC(=O)c2cccnc2Nc2ccc3cn[nH]c3c2)cc1CCCN1CCCC1` [Example 56, N-[4-(tert-Butyl)-3-(3-pyrrolidinylpropyl)phenyl][2-(1H-indazol-6-ylamino)(3-pyridyl)]carboxamide], the IC50 is reported as < 50 nM. In the case of `CC(C)(C)c1ccc(NC(=O)c2cccnc2Nc2ccc3cn[nH]c3c2)cc1CCCN1CCOCC1` [Example 57, N-[4-(tert-Butyl)-3-(3-morpholin-4-ylpropyl)phenyl][2-(1H-indazol-6-ylamino)(3-pyridyl)]carboxamide], the IC50 is reported as < 50 nM. With `CN1CCN(CCCc2ccc(NC(=O)c3cccnc3Nc3ccc4cn[nH]c4c3)cc2)CC1` [Example 61, [2-(1H-Indazol-6-ylamino)(3-pyridyl)]-N-{4-[3-(4-methylpiperazinyl)propyl]phenyl}carboxamide] the IC50 was < 50 nM. In the case of `O=C(Nc1ccc2ccn(CCN3CCOCC3)c2c1)c1cccnc1Nc1ccc2cn[nH]c2c1` [Example 62, [2-(1H-Indazol-6-ylamino)(3-pyridyl)]-N-[1-(2-morpholin-4-ylethyl)indol-6-yl]carboxamide], the IC50 is reported as < 50 nM. In the case of `CC(C)(CCN1CCOCC1)c1ccc(NC(=O)c2cccnc2Nc2ccc3cn[nH]c3c2)cc1` [Example 63, N-[4-(1,1-Dimethyl-3-morpholin-4-ylpropyl)phenyl][2-(1H-indazol-6-ylamino)(3-pyridyl)]carboxamide], the IC50 is reported as < 50 nM. In the case of `COCCOCCOC(c1ccc(NC(=O)c2cccnc2Nc2ccc3cn[nH]c3c2)cc1)(C(F)(F)F)C(F)(F)F` [Example 64], the IC50 is reported as < 50 nM. For `O=C(Nc1ccc(C(OCCN2CCCCC2)(C(F)(F)F)C(F)(F)F)cc1)c1cccnc1Nc1ccc2cn[nH]c2c1` [Example 65, [2-(1H-Indazol-6-ylamino)(3-pyridyl)]-N-{4-[2,2,2-trifluoro-1-(2-piperidylethoxy)-1-(trifluoromethyl)ethyl]phenyl}carboxamide], the IC50 was < 50 nM. In the case of `CC(C)(C)c1ccc(NC(=O)c2ccc(F)nc2Nc2ccc3cn[nH]c3c2)cc1` [Example 66, N-[4-(tert-Butyl)phenyl][6-fluoro-2-(1H-indazol-6-ylamino)(3-pyridyl)]carboxamide], the IC50 is reported as < 50 nM. With `CC(C)c1ccc(NC(=O)c2ccc(F)nc2Nc2ccc3cn[nH]c3c2)cc1` [Example 67, [6-Fluoro-2-(1H-indazol-6-ylamino)(3-pyridyl)]-N-[4-(methylethyl)phenyl]carboxamide] the IC50 was < 50 nM. For `O=C(Nc1cccc(C(F)(F)F)c1)c1ccc(F)nc1Nc1ccc2cn[nH]c2c1` [Example 68, [6-Fluoro-2-(1H-indazol-6-ylamino)(3-pyridyl)]-N-[3-(trifluoromethyl)phenyl]carboxamide], the IC50 was < 50 nM. For `O=C(Nc1cc(CCCN2CCOCC2)cc(C(F)(F)F)c1)c1cccnc1Nc1ccc2cn[nH]c2c1` [Example 70, 2-(1H-Indazol-6-ylamino)-N-[3-(3-morpholin-4-yl-propyl)-5-trifluoromethyl-phenyl]-nicotinamide], the IC50 was < 50 nM. For `O=C(Nc1cc(CCCN2CCCCC2)cc(C(F)(F)F)c1)c1cccnc1Nc1ccc2cn[nH]c2c1` [Example 71, 2-(1H-Indazol-6-ylamino)-N-[3-(3-piperidin-1-yl-propyl)-5-trifluoromethyl-phenyl]-nicotinamide], the IC50 was < 50 nM. In the case of `CN1CCC(Cc2cc(NC(=O)c3cccnc3Nc3ccc4cn[nH]c4c3)cc(C(F)(F)F)c2)CC1` [Example 72, 2-(1H-Indazol-6-ylamino)-N-[3-(1-methyl-piperidin-4-ylmethyl)-5-trifluoromethyl-phenyl]-nicotinamide], the IC50 is reported as < 50 nM. For `O=C(Nc1cc(OC2CCNCC2)cc(C(F)(F)F)c1)c1cccnc1Nc1ccc2cn[nH]c2c1` [Example 74, 2-(1H-Indazol-6-ylamino)-N-[3-(piperidin-4-yloxy)-5-trifluoromethyl-phenyl]-nicotinamide], the IC50 was < 50 nM. For `O=C(Nc1cc(OCC2CCNCC2)cc(C(F)(F)F)c1)c1cccnc1Nc1ccc2cn[nH]c2c1` [Example 75, 2-(1H-Indazol-6-ylamino)-N-[3-(piperidin-4-ylmethoxy)-5-trifluoromethyl-phenyl]-nicotinamide], the IC50 was < 50 nM. In the case of `CC1(C)NS(=O)(=O)c2cc(NC(=O)c3cccnc3Nc3ccc4cn[nH]c4c3)ccc21` [Example 76, N-(3,3-Dimethyl-1,1-dioxo-2,3-dihydro-1H-116-benzo[d]isothiazol-6-yl)-2-(1H-indazol-6-ylamino)-nicotinamide], the IC50 is reported as < 50 nM. In the case of `CC1(C)CCC(C)(C)c2cc(NC(=O)c3cccnc3Nc3ccc4cn[nH]c4c3)ccc21` [Example 77, 2-(1H-Indazol-6-ylamino)-N-(5,5,8,8-tetramethyl-5,6,7,8-tetrahydro-naphthalen-2-yl)-nicotinamide], the IC50 is reported as < 50 nM. `CN1CCC(COc2cc(NC(=O)c3cccnc3Nc3ccc4cn[nH]c4c3)ccc2C(F)(F)C(F)(F)F)CC1` [Example 78, 2-(1H-Indazol-6-ylamino)-N-[3-(1-methyl-piperidin-4-ylmethoxy)-4-pentafluoroethyl-phenyl]-nicotinamide] was tested, and the IC50 was < 50 nM. For `CC(C)N1CCC(COc2cc(NC(=O)c3cccnc3Nc3ccc4cn[nH]c4c3)ccc2C(F)(F)C(F)(F)F)CC1` [Example 79, 2-(1H-Indazol-6-ylamino)-N-[3-(1-isopropyl-piperidin-4-ylmethoxy)-4-pentafluoroethyl-phenyl]-nicotinamide], the IC50 was < 50 nM. For `O=C(Nc1ccc(C(F)(F)C(F)(F)F)c(OC[C@H](O)CN2CCCC2)c1)c1cccnc1Nc1ccc2cn[nH]c2c1` [Example 80, N-[3-(2-Hydroxy-3-pyrrolidin-1-yl-propoxy)-4-pentafluoroethyl-phenyl]-2-(1H-indazol-6-ylamino)-nicotinamide], the IC50 was < 50 nM. In the case of `O=C(Nc1ccc(C(F)(F)C(F)(F)F)c(OCCN2CCCCC2)c1)c1cccnc1Nc1ccc2cn[nH]c2c1` [Example 81, 2-(1H-Indazol-6-ylamino)-N-[4-pentafluoroethyl-3-(2-piperidin-1-yl-ethoxy)-phenyl]-nicotinamide], the IC50 is reported as < 50 nM. `O=C(Nc1ccc(C(F)(F)C(F)(F)F)c(OC[C@@H](O)CN2CCCC2)c1)c1cccnc1Nc1ccc2cn[nH]c2c1` [Example 82, N-[3-(2-Hydroxy-3-pyrrolidin-1-yl-propoxy)-4-pentafluoroethyl-phenyl]-2-(1H-indazol-6-ylamino)-nicotinamide] was tested, and the IC50 was < 50 nM. With `O=C(Nc1ccc(C(F)(F)C(F)(F)F)c(OC[C@@H]2CCCN2)c1)c1cccnc1Nc1ccc2cn[nH]c2c1` [Example 83, 2-(1H-Indazol-6-ylamino)-N-[4-pentafluoroethyl-3-(2S-pyrrolidin-2-ylmethoxy)-phenyl]-nicotinamide] the IC50 was < 50 nM. With `O=C(Nc1ccc(C(F)(F)C(F)(F)F)c(OC[C@H]2CCCN2)c1)c1cccnc1Nc1ccc2cn[nH]c2c1` [Example 84, 2-(1H-Indazol-6-ylamino)-N-[4-pentafluoroethyl-3-(2R-pyrrolidin-2-ylmethoxy)-phenyl]-nicotinamide] the IC50 was < 50 nM.
